Laboratory results taken from patent US20250197387A1, “BCL-XL DEGRADERS AND USES THEREOF” (Kymera Therapeutics, Inc., priority 2021, published 2025).

Experiments:
Format in all cases: cell-based
BCL-XL = target: T1, BCL-XL (Homo sapiens, UniProt Q07817); test: Bcl-xL ELISA degradation in MOLT-4 cells, 6 h; details: for DC50: read-out: Bcl-xL ELISA in MOLT-4 degradation 6 h: Mean external-Abs DC50
T1 construct: endogenous in cells; host or cells: MOLT-4
Method: The letter codes for BCL-XL DC50 include: A (<0.01 μM); B (0.01-0.1 μM); C (>[…]); D (>0.5-1.0 μM); and E (>1.0 μM). The letter codes for Dmax % include A (>75%); B (50 to 75%); C (<50%).

MOLT-4 cells = test: CTG (CellTiter-Glo) cell viability assay, MOLT-4; details: Homo sapiens, MOLT-4, 72 h, 3 day incubation, read-out: CTG Cell Viability Assay - MOLT-4 3 day: Average external-IC50
In short: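 MOLT-4 and Caki-2 cells were seeded at 10,000 per well and treated with a 9-point, 1:3 dilution series from 10 μM top concentration (0.2% DMSO). After 3 days at 37 °C, 5% CO2, viability was read by CellTiter-Glo luminescence and IC50 fitted by three-parameter logistic.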

Caki-2 cells = test: CTG (CellTiter-Glo) cell viability assay, Caki-2; details: Homo sapiens, 72 h, 3 day incubation, read-out: CTG Chempartner - Caki-2 3 day: Average external-IC50
Method: Compound-mediated viability effect on MOLT-4 and Caki-2 was quantitatively determined using the CellTiter-Glo® Luminescent Cell Viability Assay kit from Promega (Catalog number G7570) following manufacturer's recommended procedures. Briefly, MOLT-4 and Caki-2 cells were seeded into 384 well plates (Grenier Bio-One, Catalog number 781080) with a density of 10,000 cells per well. Compounds were then added to the assay plate with final top concentration of 10 μM and 1:3 dilution series with total of 9 doses. The final DMSO concentration is normalized to 0.2%. The assay plates were incubated at 37° C., for 3 days under 5% CO2. Then the assay plate was equilibrated at room temperature for 10 minutes. To determine cell viability, 30 uL CellTiter Glo reagent was added to each well and the assay plate was centrifuged at 1000 rpm for 30 second, incubated at room temperature for 10 min, and analyzed by detecting the luminescence using a multimode plate reader (EnVision 2105, PerkinElmer). The data was then analyzed by software Prism 7.0 from GraphPad and the dose response curves are fit using a three-parameter logistic equation to calculate IC50.
The letter codes for MOLT-4 IC50 include: A (<0.1 μM); B (0.1-1.0 μM); C (>1.0-3.0 μM); and D (>3.0 μM). The letter codes for Caki-2 IC50 include: A (<0.1 μM); B (0.1-1.0 μM); C (>1.0-10.0 μM); and D (>10.0 μM).

T1 sequence (Q07817 whole entry): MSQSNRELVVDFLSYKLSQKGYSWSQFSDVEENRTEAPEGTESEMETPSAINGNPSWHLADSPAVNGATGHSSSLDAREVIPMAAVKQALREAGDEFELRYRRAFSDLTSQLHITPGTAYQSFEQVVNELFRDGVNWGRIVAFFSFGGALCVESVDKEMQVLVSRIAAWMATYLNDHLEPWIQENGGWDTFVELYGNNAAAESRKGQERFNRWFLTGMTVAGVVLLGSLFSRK

Dmax (BCL-XL) [%] | DC50 (BCL-XL) [nM] | IC50 (MOLT-4 cells) [nM] | Compound | IC50 (Caki-2 cells) [nM]
> 75 | 10 to 100 | 100 to 1000 | Cc1c(-c2ccc(N3CCc4cccc(C(=O)Nc5nc6cccnc6s5)c4C3)nc2C(=O)NS(=O)(=O)CCCCCC(=O)N[C@H](C(=O)N2C[C@H](O)C[C@H]2C(=O)N[C@H](C)c2ccc(C#N)cc2O)C(C)(C)C)cnn1CC1CCCCC1 (single isomer, unassigned) [I-486] | > 10000
> 75 | < 10 | < 100 | Cc1cc(N(C)c2ccc(-c3cnn(CC45CC6CC(CC(C6)C4)C5)c3C)c(C(=O)NS(=O)(=O)CCCCCC(=O)N[C@H](C(=O)N3C[C@H](O)C[C@H]3C(=O)N[C@@H](C)c3ccc4c(c3)c(C)nn4C)C(C)(C)C)n2)nnc1Nc1nc2ccccc2s1 (single isomer, unassigned) [I-491] | > 10000
> 75 | 10 to 100 | 100 to 1000 | Cc1cc(N(C)c2ccc(-c3cnn(CC45CC6CC(CC(C6)C4)C5)c3C)c(C(=O)NS(=O)(=O)CCCCCC(=O)N[C@H](C(=O)N3C[C@H](O)C[C@H]3C(=O)N[C@H](C)c3ccc4c(c3)c(C)nn4C)C(C)(C)C)n2)nnc1Nc1nc2ccccc2s1 (single isomer, unassigned) [I-492] | > 10000
> 75 | < 10 | < 100 | Cc1ncsc1-c1ccc(CNC(=O)[C@@H]2C[C@@H](O)CN2C(=O)[C@@H](NC(=O)CCc2cccc(S(=O)(=O)NC(=O)c3nc(N4CCc5cccc(C(=O)Nc6nc7ccccc7s6)c5C4)ccc3-c3cnn(CC4CCCCC4)c3C)c2)C(C)(C)C)cc1 [I-283] | 1000 to 10000
> 75 | < 10 | < 100 | Cc1ncsc1-c1ccc([C@H](C)NC(=O)[C@@H]2C[C@@H](O)CN2C(=O)[C@H](NC(=O)CCCCCCCS(=O)(=O)NC(=O)c2nc(N3CCc4cccc(C(=O)Nc5nc6ccccc6s5)c4C3)ccc2-c2cnn(CC34CC5CC(CC(C5)C3)C4)c2C)C(C)(C)C)cc1 [I-284] | 100 to 1000
50 to 75 | 100 to 500 | 100 to 1000 | Cc1ncsc1-c1ccc([C@H](C)NC(=O)[C@@H]2C[C@H](O)CN2C(=O)[C@@H](NC(=O)CCc2ccc(S(=O)(=O)NC(=O)c3nc(N4CCc5cccc(C(=O)Nc6nc7ccccc7s6)c5C4)ccc3-c3cnn(CC4CCCCC4)c3C)cc2)C(C)(C)C)cc1 [I-285] | 1000 to 10000
< 50 | 500 to 1000 | 1000 to 3000 | Cc1ncsc1-c1ccc([C@H](C)NC(=O)[C@@H]2C[C@@H](O)CN2C(=O)[C@@H](c2cc(OC3CCN(CCNC(=O)c4nc(N5CCc6cccc(C(=O)Nc7nc8ccccc8s7)c6C5)ccc4-c4cnn(CC5CCCCC5)c4C)CC3)no2)C(C)C)cc1 [I-291] | 1000 to 10000
50 to 75 | 100 to 500 | 100 to 1000 | Cc1ncsc1-c1ccc([C@H](C)NC(=O)[C@@H]2C[C@@H](O)CN2C(=O)[C@H](c2cc(OC3CCN(CCNC(=O)c4nc(N5CCc6cccc(C(=O)Nc7nc8ccccc8s7)c6C5)ccc4-c4cnn(CC5CCCCC5)c4C)CC3)no2)C(C)C)cc1 [I-292] | 1000 to 10000
< 50 | 500 to 1000 | 1000 to 3000 | Cc1ncsc1-c1ccc([C@H](C)NC(=O)[C@@H]2C[C@@H](O)CN2C(=O)[C@H](c2cc(OC3CC4(C3)CN(C(=O)c3nc(N5CCc6cccc(C(=O)Nc7nc8ccccc8s7)c6C5)ccc3-c3cnn(CC5CCCCC5)c3C)C4)no2)C(C)C)cc1 [I-293] | 1000 to 10000
50 to 75 | 10 to 100 | 100 to 1000 | Cc1ncsc1-c1ccc([C@H](C)NC(=O)[C@@H]2C[C@@H](O)CN2C(=O)[C@@H](c2cc(OC3CC4(C3)CN(C(=O)c3nc(N5CCc6cccc(C(=O)Nc7nc8ccccc8s7)c6C5)ccc3-c3cnn(CC5CCCCC5)c3C)C4)no2)C(C)C)cc1 [I-294] | 1000 to 10000
50 to 75 | 10 to 100 | 100 to 1000 | Cc1ncsc1-c1ccc([C@H](C)NC(=O)[C@@H]2C[C@H](O)CN2C(=O)[C@@H](NC(=O)C2CCN(c3ccc(S(=O)(=O)NC(=O)c4nc(N5CCc6cccc(C(=O)Nc7nc8ccccc8s7)c6C5)ccc4-c4cnn(CC5CCCCC5)c4C)cc3)CC2)C(C)(C)C)cc1 [I-295] | 1000 to 10000
50 to 75 | 100 to 500 | 100 to 1000 | Cc1ncsc1-c1ccc([C@H](C)NC(=O)[C@@H]2C[C@@H](O)CN2C(=O)[C@@H](NC(=O)C2CCN(c3ccc(S(=O)(=O)NC(=O)c4nc(N5CCc6cccc(C(=O)Nc7nc8ccccc8s7)c6C5)ccc4-c4cnn(CC5CCCCC5)c4C)cc3CC(=O)O)CC2)C(C)(C)C)cc1 [I-296] | 1000 to 10000
< 50 | 500 to 1000 | 100 to 1000 | Cc1ncsc1-c1ccc([C@H](C)NC(=O)[C@@H]2C[C@@H](O)CN2C(=O)[C@@H](NC(=O)CCCCc2ccc(NC(=O)c3nc(N4CCc5cccc(C(=O)Nc6nc7ccccc7s6)c5C4)ccc3-c3cnn(CC4CCCCC4)c3C)cc2)C(C)(C)C)cc1 [I-298] | 1000 to 10000
> 75 | 100 to 500 | 100 to 1000 | Cc1ncsc1-c1ccc([C@H](C)NC(=O)[C@@H]2C[C@@H](O)CN2C(=O)[C@@H](NC(=O)C2CCN(c3ccc(S(=O)(=O)NC(=O)c4nc(N5CCc6cccc(C(=O)Nc7nc8ccccc8s7)c6C5)ccc4-c4cnn(CC5CCCCC5)c4C)cc3)C(=O)C2)C(C)(C)C)cc1 (stereo partly drawn) [I-299] | 1000 to 10000
50 to 75 | 100 to 500 | 100 to 1000 | Cc1ncsc1-c1ccc([C@H](C)NC(=O)[C@@H]2C[C@@H](O)CN2C(=O)[C@@H](NC(=O)C2CCN(c3ccc(S(=O)(=O)NC(=O)c4nc(N5CCc6cccc(C(=O)Nc7nc8ccccc8s7)c6C5)ccc4-c4ccnc(OC(C)C)c4C)cc3)CC2)C(C)(C)C)cc1 [I-300] | 1000 to 10000
50 to 75 | > 1000 | 100 to 1000 | Cc1ncsc1-c1ccc([C@H](C)NC(=O)[C@@H]2C[C@@H](O)CN2C(=O)[C@@H](NC(=O)[C@H]2CC[C@H](c3nc(C4CCCN(C(=O)c5nc(N6CCc7cccc(C(=O)Nc8nc9ccccc9s8)c7C6)ccc5-c5cnn(CC6CCCCC6)c5C)C4)no3)CC2)C(C)(C)C)cc1 (stereo partly drawn) [I-301] | 1000 to 10000
 |  | 1000 to 3000 | C#Cc1ccc(CNC(=O)[C@@H]2C[C@@H](O)CN2C(=O)[C@@H](NC(=O)CCCCCS(=O)(=O)NC(=O)c2nc(N3CCc4cccc(C(=O)Nc5nc6cccnc6s5)c4C3)ccc2-c2cnn(CC(C)(C)C)c2C)C(C)(C)C)cc1 [I-468] | > 10000
 |  | 100 to 1000 | C#Cc1ccc([C@H](C)NC(=O)[C@@H]2C[C@@H](O)CN2C(=O)[C@@H](NC(=O)CCCCCS(=O)(=O)NC(=O)c2nc(N3CCc4cccc(C(=O)Nc5nc6cccnc6s5)c4C3)ccc2-c2cnn(CC(C)(C)C)c2C)C(C)(C)C)cc1 [I-469] | > 10000
 |  | < 100 | C#Cc1ccc([C@H](C)NC(=O)[C@@H]2C[C@@H](O)CN2C(=O)[C@@H](NC(=O)CCCCCS(=O)(=O)NC(=O)c2nc(N3CCc4cccc(C(=O)Nc5nc6ccccc6s5)c4C3)ccc2-c2cnn(CC(C)(C)C)c2C)C(C)(C)C)cc1 [I-470] | > 10000
 |  | 100 to 1000 | C#Cc1ccc(CNC(=O)[C@@H]2C[C@@H](O)CN2C(=O)[C@@H](NC(=O)CCCCCS(=O)(=O)NC(=O)c2nc(N(C)c3cc(C)c(Nc4nc5ccccc5s4)nn3)ccc2-c2cnn(CC(C)(C)C)c2C)C(C)(C)C)cc1 [I-472] | > 10000
